Consider 2 compounds from patent US8022103B2, “Ester prodrugs of prostratin and related phorbol compounds” (Salvia Sciences, Inc., priority 2005, dated 2011).

In series [1] the test system is HIV-1Ba-L. Description: PBMC antiviral assay, HIV-1Ba-L. It counts as cell-based. As to conditions: human PBMCs. How it is done: (§1) Compounds SA-101A and SA-101B were tested for antiviral activity against HIV-1 in peripheral blood mononuclear cells (PBMC) acutely infected with the HIV-1 isolates. PBMCs were derived from normal HIV-1 negative donors, and cultured under conditions which promote cell survival and HIV replication. Fresh human blood was obtained commercially from Biological Specialty Corporation (Colmar, Pa.). The low passage clinical isolates HIV-1Ba-L, HIVIIIB, and SIVmac251 were from the NIAID AIDS Research and Reference Reagent Program. Immediately before use, pre-titered aliquot of the viruses were removed from storage in a freezer (−80° C.) and thawed rapidly to room temperature in a biological safety cabinet. Phytohemagglutinin (PHA-P) was obtained from Sigma (St. Louis, Mo.) and recombinant IL-2 was obtained from R&D Systems Inc. (Minneapolis, Minn.). Antiviral activity was tested from a high-test concentration of 100 μM or 100 μg/ml with nine ½-log serial dilutions of the compound to derive applicable IC50 (concentration inhibition virus replication by 50%), IC90 (concentration inhibition virus replication by 90%), TC50 (concentration decreasing cell viability by 50%) and TI (therapeutic index: TC50/IC50) values.
Preparation of PMBC. Fresh Human PBMCs, Seronegative for HIV and HBV, were isolated from screened donors (Interstate Blood Bank, Inc. Memphis, Tenn.). Cells were pelleted/washed 2-3 times by low speed centrifugation and resuspensded in PBS to remove contaminating platelets. The leukophoresed blood was then diluted 1:1 with Dulbecco's Phosphate Buffered Saline (DPBS) and layered over 14 mL of Lymphocyte Separation Medium (LSM; Cellgro® by Mediatech, Inc.; density 1.078+/−0.002 g/ml; Cat. # 85-072-CL) in a 50 mL centrifuge tube and then centrifuged for 30 minutes at 600×g. Banded PBMCs were gently aspirated from the resulting interface and subsequently washed 2× with PBS by low speed centrifugation. After the final wash, cells were enumerated by trypan blue exclusion and re-suspended at 1×10^7 cells/mL in RPMI 1640 supplemented with 15% Fetal Bovine Serum (FBS), and 2 mM L-glutamine, 4 μg/mL Phytohemagglutinin (PHA-P, Sigma). The cells were allowed to incubate for 48-72 hours at 37° C. After incubation, PBMCs were centrifuged and re-suspended in RPMI 1640 with 15% FBS, 2 mM L-glutamine, 100 U/mL penicillin, 100 μg/mL streptomycin, 10 μg/mL gentamycin, and 20 U/mL recombinant human IL-2 (R&D Systems, Inc). […]
(§2) PMBC assay. […] Pooling (mixing) of mononuclear cells from more than one donor is used to minimize the variability observed between individual donors, which results from quantitative and qualitative differences in HIV infection and overall response to the PHA and IL-2 of primary lymphocyte populations. […]

Series [2] has as its system SIVMac251. Briefly: PBMC antiviral assay, SIVMac251. It counts as cell-based, SIV. The following applies: SIVMac251, human PBMCs. How it is done:
as §1
Preparation of PMBC. Fresh Human PBMCs, Seronegative for HIV and HBV, were isolated from screened donors (Interstate Blood Bank, Inc. Memphis, Tenn.). Cells were pelleted/washed 2-3 times by low speed centrifugation and resuspensded in PBS to remove contaminating platelets. The leukophoresed blood was then diluted 1:1 with Dulbecco's Phosphate Buffered Saline (DPBS) and layered over 14 mL of Lymphocyte Separation Medium (LSM; Cellgro® by Mediatech, Inc.; density 1.078+/−0.002 g/ml; Cat. # 85-072-CL) in a 50 mL centrifuge tube and then centrifuged for 30 minutes at 600×g. […]
as §2

Series [3] has as its system CEM-SS cells. Briefly: MTS cell viability in CEM-SS cells (cytotoxicity). It is filed as cell-based. The following applies: for TC50: MTS; for Cytotoxicity: at the concentrations evaluated. How it is done:
Cell Preparation. CEM-SS cells were passaged in T-75 flasks prior to use in the antiviral assay. On the day preceding the assay, the cells were split 1:2 to assure they were in an exponential growth phase at the time of infection. Total cell and viability quantification was performed using a hemacytometer and trypan blue exclusion. Cell viability was greater than 95% for the cells to be utilized in the assay. The cells were resuspended at 5×10^4 cells/ml in tissue culture medium and added to the drug-containing microliter plates in a volume of 50 μl.
MTS Staining for Cell Viability. At assay termination, the assay plates were stained with the soluble tetrazolium-based dye MTS (Cell Titer Reagent Promega) to determine cell viability and quantify compound toxicity. At termination of the assay, 20 μL of MTS reagent was added per well. The microtiter plates were then incubated 4 6 hrs at 37° C. Adhesive plate sealers were used in place of the lids, the sealed plate was inverted several times to mix the soluble formazan product and the plate was read spectrophotometrically at 490/650 ηm with a Molecular Devices Vmax plate reader.
Data Analysis. Using an in-house computer program, IC50 (50%, inhibition of virus replication), IC95 (95%, inhibition of virus replication), TC50 (50% reduction in cell viability), TC95 (95% reduction in cell viability), and a therapeutic index (TI=TC50/IC50) were determined.

For series [4], the system named is cell line ET (luc-ubi-neo/ET), human Huh7 hepatoma. Description: CytoTox-ONE cytotoxicity in ET (luc-ubi-neo/ET) Huh7 cells. It is filed as cell-based. How it is done:
Luciferase assay. The ET cell line is grown in Dulbecco's modified essential media (DMEM), 10% fetal bovine serum (FBS), 1% penicillin-streptomycin (pen-strep), 1% glutamine, […] G418 in a 5% CO2 incubator at 37° C. All cell culture reagents are from Gibco Life Technologies. Cells are trypsinized (1% trypsin:EDTA) and plated out at 5×10^3 cells/well in white 96-well assay plates (Costar) dedicated to cell number (cytotoxicity) or antiviral activity (Luc) assessments. Drugs are added at five half-log concentrations each and the assay is run in DMEM, 5% FBS, 1% pen-strep, 1% glutamine. Human interferon alpha-2b (PBL Biolabs, New Brunswick, N.J.) is included in each run as a positive control compound. […] Compound IC50 and IC90 values (antiviral activity) are derived from plots of HCV RNA levels assessed as HCV RNA replicon-derived Luc activity versus drug concentration using Steady-Glo assay reagent (Promega), with Luc luminescence read on a 1450 Microbeta liquid scintillation and luminescence counter. Compound TC50 and TC90 values (cytotoxicity) are calculated from plots of cell number vs. drug concentration using data from the CytoTox-ONE cell proliferation assay (Promega); with fluorescence read using an Analyst HT fluorometer. […] Compound selectivity indices (SI=TC/IC) SI50 and SI90 values are calculated from spreadsheets.

Structures are written as SMILES. ≈ marks a conversion by molar mass, not a printed value. Like-named read-outs stand apart in the source and are kept apart here.

On to `CC(=O)O[C@@]12C[C@@H](C)[C@@]3(O)[C@@H](C=C(CO)C[C@]4(O)C(=O)C(C)=C[C@@H]34)[C@@H]1C2(C)C` [SA-101A, 12-deoxyphorbol 13-acetate], for which the IC50 in series [1] (Human immunodeficiency virus 1, PBMC, read-out: IC50) stood at 0.05 µg/mL (≈ 0.128 µM); in series [2] (Simian immunodeficiency virus, PBMC) it was 0.39 µg/mL (≈ 0.999 µM). Further, the IC90 in series [1] (Human immunodeficiency virus 1, PBMC, read-out: IC90) came to 0.39 µg/mL (≈ 0.999 µM); in series [2] (Simian immunodeficiency virus, PBMC, read-out: IC90), 0.9 µg/mL (≈ 2.3 µM). In series [3], the TC50 is more than 0.50 µg/mL. Besides, the Cytotoxicity entry is “no cytotoxicity” in series [3] and “did not appear to be active or cytotoxic” in series [4].
On to `CC(=O)OC12CC(C)C3(O)C(C=C(COC(=O)CCC(=O)O)CC4(O)C(=O)C(C)=CC43)C1C2(C)C` (stereo not shown) [SA-101B, Prostratin Succinate], for which, in series [1] (40% Human AB serum), the IC50 came out at 0.0007 µg/mL and the concentration for an effect of 90% (IC90) is more than 1.00 µg/mL. Besides, the IC90 in series [2] (40% Human AB serum) was more than 1.00 µg/mL. Also, in series [3], the TC50 is more than 0.50 µg/mL and the Cytotoxicity result is listed as “no cytotoxicity”. In addition, in series [4], the Cytotoxicity result is listed as “did not display any appreciable cytotoxicity”.
